Test results as given in patent US8859615B2, “Compounds, compositions and methods for reducing toxicity and treating or preventing diseases” (priority 2008, dated 2014).
Where two headings read alike, the source gives them in different places.

Legend:
CD-1 mouse splenocytes = experiment: Splenocyte stimulation: [3H]dThd incorporation into DNA (Table 7, FIGS. 10, 11); type: cell-based; conditions: for proliferative activity life-span of normal mouse splenocytes in vitro: FIGS. 10 and 11; for stimulation of DNA synthesis ([3H] thymidine uptake) by mouse splenocytes / Incorporation of [3H]dThd into Mouse Splenocyte DNA (cpm): Table 7; for Incorporation of [3H]dThd into Mouse Splenocyte DNA (cpm): control 224 ± 28
Excerpt: FIG. 10 show controls and the effects of different concentrations of compounds of the invention, at different time points, on the proliferation of cultured mouse splenocytes as measured by DNA synthesis through incorporation of radiolabeled thymidine into the cells' DNA.
FIG. 11 show controls and the effects of different concentrations of compounds of the invention, at different time points, on the proliferation of cultured mouse splenocytes as measured by DNA synthesis through incorporation of radiolabeled thymidine into the DNA.
Splenocytes were prepared from CD mice as a single cell suspension, and treated with red blood cell (RBC) lysis buffer (as described at http://www.ebioscience.com/ebioscience/specs/antibody—00/00-4333.htm) to remove RBCs. In a typical experiment, splenocyte stimulations by […] (PHA), panaxytriol (PXT) or Compound D were measured by using tritium-labeled thymidine, ^3H-dThd, as a tracer for DNA synthesis. DNA synthesis correlates with cell proliferation. The incubation mixture consisted of splenocyte suspension in RPMI 1640 medium (1.56×10^6 cells in 198.5 μl)+3 μg of PHA in 1 μl+ the test compound at various concentrations in 0.5 μl in dimethyl sulfoxide (DMSO), to a final concentration of 200 μl per microplate well. DMSO alone was used in place of the compound in DMSO as a control. The incubation was carried out in 5% CO2-humidified atmosphere at 37° C. for a designated time [e.g., 24 hr, 48 hr, 72 hr, 96 hr]. At the end of the incubation period, ^3H-dThd 1 μCi in 1 μl was added for an additional 6 hr incubation. The reaction was stopped by adding one volume of 20% trichloroacetic acid (TCA), homogenized at 3° C. and washed with 20% TCA. The precipitate was heat extracted (90°) with 10% TCA for 15 minutes to obtain the DNA fraction, which has the radiolabel incorporated, in the supernatant. The supernatant was added to a 7-fold volume of Liquicint for scintillation counting, which was accomplished with a Beckman LS 6000 IC spectrometer from Beckman Coulter Co. The incorporation of [^3H]dThd into DNA of splenocytes were measured as described above or previously (Chou et al. Phytotherap. Res. 3: 237-242, 1989). The results are depicted in FIGS. 11 and 12.
For the cell-counting assays, the cells were washed with RPMI 1640 medium and followed by centrifugation. The cell number was counted with a hemocytometer. Splenocyte suspensions (0.4×10^6 cells in 0.2 ml) in flat bottom 96-well plates were incubated with [^3H]dThd (1 μCi) for 24-hrs in the absence or presence of […] (PHA, 0.1 μg/0.2 ml) or panaxytriol (0.03-1 μM). Studies indicate that maximal stimulation occurred at 48 hrs or 72 hrs. The procedure in Table 7 was used to test the splenocytes used in the assays described herein to test the compounds of the invention, shown by PHA stimulation of DNA synthesis. […] Splenocytes from this culture were used in the assays in FIGS. 11 and 12 and the corresponding Examples.

[1] = tested on: human mammary carcinoma MX-1 xenograft; experiment: Therapeutic effect and body weight in nude mice bearing MX-1 xenograft, single agents; conditions: for antitumor effects against MX-1 xenografts: mouse, in vivo; for body weight decrease upon treatment: up to the highest dosage levels (100 mg/kg)
Method: FIGS. 1A and 1B show the therapeutic, anti-cancer effects of various dosage regimens of panaxytriol and Compound (A), respectively, given by i.v. injection in nude mice bearing human mammary carcinoma MX-1 xenograft tumors, which is an in vivo model for breast cancer. […] The compounds were administered starting on day 8.
An in vivo assay uses male athymic nude mice bearing the nu/nu gene (6 weeks of age or older, weighing between 20 and 22 g, obtainable from NCl, Frederick, Md.) into which one or more human tumor xenografts are been implanted.
Nude mice having human mammary carcinoma xenograft MX-1 were treated with panaxytriol or Compound (A) at various dosages through the slow i.v. infusion protocol by Chou et al. (Chou, T. C., et al, Proc. Natl. Acad. Sci. U.S.A. 95: 15798 (1998), the contents of which are herein incorporated by reference in their entirety).

human PMBC lymphocytes = experiment: Time course of effects on proliferation of human lymphocytes (XTT and CCK-8; Table 6); type: cell-based; conditions: Lymphocyte, read-out: Dm
Method: Absorbance was measured by Powerwave a XS microplate spectrophotometer.
The effect of compounds of the invention on the proliferation of human lymphocytes at different time points are shown in Table 6 as results of XTT and CCK-8 tetrazolium assays following 24-hour, 72-hour, and 120-hour incubation. […] Cultured human PMBC lymphocytes were used in the assay. The procedures employed are taught in the General Biological Methods section.

[2] = tested on: human mammary carcinoma MX-1 xenografts; conditions: 5FU 50 mg/kg i.v. QD×5
MX-1 mammary carcinoma = experiment: Cytotoxicity against solid tumor cells, CCK-8, 72 hrs (Table 4); type: cell-based; conditions: Homo sapiens
Method: (§1) Compounds are also evaluated against A-549 lung carcinoma and SK-OV-3 ovarian adenocarcinoma cell lines using the methodology as for Table 3. The potency order for the compounds may vary in different tumor cell lines. […] Absorbance was measured using a Powerwave XS microplate spectrophotometer.

HCT-116 colon carcinoma = experiment: as above; type: cell-based; conditions: Homo sapiens
Method: as §1

leukemic CCRF CEM cells = experiment: Precursor incorporation into DNA, RNA and protein (Table 9); type: cell-based, human
Method: The radioactive tracer studies were carried out as described by Chou T C, et al. Cancer Res. 43: 3074-3079, 1983.

[3] = tested on: CCRF-CEM subline resistant to TAXOL; experiment: In vitro cytotoxicity against TAXOL-resistant CCRF-CEM subline; type: cell-based, human; conditions: for IC50: Homo sapiens, CCRF-CEM; for fold of cross-resistance (CCRF-CEM/TAXOL vs parent cell line): Table 3D, given as x or -fold
[4] = tested on: human colon carcinoma HCT-116 xenografts; experiment: Compound D with Iso-Oxazole-Fludelone or Isodehydelone in nude mice bearing HCT-116 xenografts
[5] = Homo sapiens, CCRF-CEM, 100 μM, 60 min, ↓ (inhibition), read-out: [3H] Leu → Protein (% Activation ↑ or Inhibition ↓)
[6] = low concentration (panaxytriol 30 μM, Compound D 6 μM), 15 min incubation
[7] = 72 h, read-out: IC50 CCRF-CEM/TAXOL

## C=C[C@H](O)C#CC#CC[C@H]1OC(C)(C)O[C@@H]1CCCCCCC [Compound (D)]
CD-1 mouse splenocytes
  proliferative activity life-span of normal mouse splenocytes in vitro: prolonged
[1]; 10 mg/kg i.v. Q4D×4
  MX-1 xenograft suppressed by the compound by itself: 10%
[1]; 15 mg/kg Q2D×1, 40 mg/kg Q2D×4
  MX-1 xenograft inhibited: 38.3%
[1]; MX-1 xenografts
  effectiveness compared with panaxytriol: more effective at lower doses than panaxytriol
[1]
  antitumor effects against MX-1 xenografts: antitumor effects
Human PMBC lymphocytes; 24 hr incubation
  EC50: 1070 nM
Human PMBC lymphocytes; 72 hr incubation
  EC50: 1520 nM
Human PMBC lymphocytes; 120 hr incubation
  EC50: 1760 nM
[2]
  effect of co-treatment on acute body-weight decrease due to 5FU: did not significantly reduce
  effect of co-treatment on therapeutic effect of 5FU: not significantly increased
MX-1 mammary carcinoma
  IC50: 5320 nM
HCT-116 colon carcinoma
  IC50: 617 nM
Leukemic CCRF CEM cells
  effect on protein synthesis: inhibitory effects
Leukemic CCRF CEM cells; 6 μM, 15 min, ↑ (activation)
  [3H]-AdR → RNA (% Activation ↑ or Inhibition ↓): 35.3 ↑ %
  [3H]-dThd → DNA (% Activation ↑ or Inhibition ↓): 13.2 ↑ %
Leukemic CCRF CEM cells; 100 μM, 60 min, ↓ (inhibition)
  [3H]-AdR → RNA (% Activation ↑ or Inhibition ↓): 72.5 ↓ %
  [3H]-dThd → DNA (% Activation ↑ or Inhibition ↓): 69.5 ↓ %
Leukemic CCRF CEM cells; 100 μM, 60 min incubation
  effect on DNA and RNA synthesis: inhibitory
Leukemic CCRF CEM cells; Homo sapiens, CCRF-CEM, 6 μM, 15 min, ↓ (inhibition), read-out: [3H] Leu → Protein (% Activation ↑ or Inhibition ↓)
  inhibition at 6 µM: 45.2%
Leukemic CCRF CEM cells; [5]
  inhibition at 100 µM: 69.5%
Leukemic CCRF CEM cells; [6]
  effect on DNA and RNA synthesis: activate
[3]; [7]
  IC50: 1.03 µM
[3]; Table 3A-2, CCK-8, 72-hr exposure, read-out: CCRF-CEM/TAXOL (IC50 in μM)
  IC50: 1.02 µM
[3]; Table 3A-2
  Fold of resistance (IC50 ratio CCRF-CEM/TAXOL vs CCRF-CEM): 0.90 fold
[3]
  fold of cross-resistance (CCRF-CEM/TAXOL vs parent cell line): 2.17 fold
[4]; 10 mg/kg, Q3D×3, Q6D×3, i.v., FIGS. 4A-C
  effect on tumor size and body-weight: reduced the tumor size and increased the subject body-weight
[4]; FIG. 15, Compound (D) orally
  effect of oral administration on toxicity of isodehydelone: reduces the toxicity and lethality of isodehydelone alone
[4]; FIGS. 4A, 4B
  effect on therapeutic effect of Iso-oxazole-fludelone: significantly enhances the therapeutic effect of Iso-oxazole-fludelone

## C=C[C@@H](O)C#CC#CC[C@@H](O)[C@H](O)CCCCCCC [panaxytriol]
CD-1 mouse splenocytes
  proliferative activity life-span of normal mouse splenocytes in vitro: prolonged
  stimulation of DNA synthesis ([3H] thymidine uptake) by mouse splenocytes: induced stimulation of DNA synthesis
CD-1 mouse splenocytes; 0.03 μM
  Incorporation of [3H]dThd into Mouse Splenocyte DNA (cpm): 227 ± 8.3 cpm
CD-1 mouse splenocytes; 0.1 μM
  Incorporation of [3H]dThd into Mouse Splenocyte DNA (cpm): 251 ± 18 cpm
CD-1 mouse splenocytes; 0.3 μM
  Incorporation of [3H]dThd into Mouse Splenocyte DNA (cpm): 290 ± 20 cpm
CD-1 mouse splenocytes; 1.0 μM
  Incorporation of [3H]dThd into Mouse Splenocyte DNA (cpm): 296 ± 9 cpm
CD-1 mouse splenocytes; listed as Panaxytriol
  stimulation of DNA synthesis ([3H] thymidine uptake) by mouse splenocytes: enhance [^3H] thymidine uptake into splenic cells in a dose-dependent manner
[1]; 30 mg/kg
  suppression of tumor growth: some suppression of tumor growth
[1]; Day 24, i.v. injection Q2D, escalating doses from day 8, FIGS. 1A, 1B
  tumor suppression compared to the control tumor size: 52.3%
[1]; FIGS. 1C, 1D, i.v. injections up to 100 mg/kg
  evidence of toxicity (body weight): no evidence
[1]; Q2D i.v. injection 50-100 mg/kg of multiple doses (FIG. 1A)
  MX-1 xenograft tumor growth suppressed by: 53%
[1]
  antitumor effects against MX-1 xenografts: antitumor effects
  body weight decrease upon treatment: no body weight decrease
[1]; listed as Panaxytriol
  body weight decrease upon treatment: without a drop in body-weight
Human PMBC lymphocytes; 24 hr incubation
  EC50: 1640 nM
Human PMBC lymphocytes; 72 hr incubation
  EC50: 3480 nM
Human PMBC lymphocytes; 120 hr incubation
  EC50: 3160 nM
Leukemic CCRF CEM cells
  effect on protein synthesis: inhibitory effects
Leukemic CCRF CEM cells; 30 μM, 15 min, ↑ (activation)
  [3H]-AdR → RNA (% Activation ↑ or Inhibition ↓): 38.0 ↑ %
  [3H]-dThd → DNA (% Activation ↑ or Inhibition ↓): 21.3 ↑ %
Leukemic CCRF CEM cells; 100 μM, 60 min, ↓ (inhibition)
  [3H]-AdR → RNA (% Activation ↑ or Inhibition ↓): 74.4 ↓ %
  [3H]-dThd → DNA (% Activation ↑ or Inhibition ↓): 67.8 ↓ %
Leukemic CCRF CEM cells; 100 μM, 60 min incubation
  effect on DNA and RNA synthesis: inhibitory
Leukemic CCRF CEM cells; Homo sapiens, CCRF-CEM, 30 μM, 15 min, ↓ (inhibition), read-out: [3H] Leu → Protein (% Activation ↑ or Inhibition ↓)
  inhibition at 30 µM: 77.8%
Leukemic CCRF CEM cells; [5]
  inhibition at 100 µM: 67.8%
Leukemic CCRF CEM cells; [6]
  effect on DNA and RNA synthesis: activate
[3]; 72 h, read-out: CCRF-CEM/TAXOL (IC50 in μM)
  IC50: 3.09 µM
[3]; [7]
  IC50: 5.22 µM
[3]; Table 3A-2
  Fold of resistance (IC50 ratio CCRF-CEM/TAXOL vs CCRF-CEM): 0.84 fold
[3]
  fold of cross-resistance (CCRF-CEM/TAXOL vs parent cell line): 1.04 fold
